Laboratory results as given in ChEMBL document CHEMBL1137086, “Identification of compounds with nanomolar binding affinity for checkpoint kinase-1 using knowledge-based virtual screening” (J Med Chem, 2004).

Target: T1, Serine/threonine-protein kinase Chk1 (Homo sapiens, UniProt O14757)
T1 sequence (O14757 whole entry): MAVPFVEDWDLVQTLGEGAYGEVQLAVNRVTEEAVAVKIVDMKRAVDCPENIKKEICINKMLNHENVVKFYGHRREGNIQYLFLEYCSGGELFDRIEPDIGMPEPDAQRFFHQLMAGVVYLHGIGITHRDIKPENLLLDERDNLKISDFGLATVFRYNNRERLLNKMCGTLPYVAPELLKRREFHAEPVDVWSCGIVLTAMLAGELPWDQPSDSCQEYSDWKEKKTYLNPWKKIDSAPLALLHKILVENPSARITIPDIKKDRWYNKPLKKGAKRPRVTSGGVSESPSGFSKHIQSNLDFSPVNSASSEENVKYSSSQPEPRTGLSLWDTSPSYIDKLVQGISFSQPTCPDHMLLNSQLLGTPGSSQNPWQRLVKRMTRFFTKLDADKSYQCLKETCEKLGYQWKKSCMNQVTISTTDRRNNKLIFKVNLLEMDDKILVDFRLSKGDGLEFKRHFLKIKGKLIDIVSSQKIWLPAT
Assay: Inhibition of checkpoint kinase-1

SMILES	IC50
COc1ccc(Nc2nc(Nc3ccc(C(=O)O)cc3)ncc2Br)cc1	450 nM
N#Cc1ccc2c(c1)NC(=O)C2c1ncnc2cc(OCCCN3CCOCC3)ccc12 (configuration not stated)	4000 nM
